According to patent publication US8455491B2, “6-cycloamino-3-(pyridazin-4-yl)imidazo[1,2-b]pyridazine and derivatives and pharmaceutical compositions comprising the same” (Sanofi, priority 2007, dated 2013):

Biological target: T1, casein kinase 1 epsilon (CK1 epsilon) (Homo sapiens, UniProt P49674)
T1 construct: Invitrogen Corporation (named as alternative)
Experiment: Filter-plate assay of ATP-33P, inhibition of casein phosphorylation by CK1 epsilon
Type: biochemical
Conditions: casein substrate, ATP 10 μM, 2 hours at ambient temperature
Procedure: The capacity of the compounds of the invention to inhibit the phosphorylation of casein by casein kinase 1 epsilon and delta may be evaluated according to the procedure described in US 2005/0131012.
Filter-Plate Assay of ATP-^33P for the Screening of CK1 Epsilon Inhibitors:
The effect of the compounds on inhibition of the phosphorylation of casein by the enzyme casein kinase 1 epsilon (CK1 epsilon) is measured, using a casein assay with filtration of ATP-^33P in vitro.
Casein kinase 1 epsilon (0.58 mg/ml) is obtained via fermentation and purification processes performed according to methods that are well known to those skilled in the art, or may also be obtained from Invitrogen Corporation™ (human CK1 epsilon).
The compounds are tested at five different concentrations so as to generate IC50 values, i.e. the concentration at which a compound is capable of inhibiting the enzymatic activity by 50%, or alternatively the percentage of inhibition at a concentration of 10 micromolar.
“U”-bottomed Falcon plates are prepared by placing 5 μL of solutions of the compounds according to the invention at concentrations of 10, 1, 0.1, 0.01 or 0.001 μM in various wells. The solutions of the compounds according to the invention at these various concentrations are prepared by diluting in a test buffer (50 mM Tris, pH 7.5, […], 2 mM DTT and 1 mM EGTA) a stock solution in DMSO at a concentration of 10 mM. Next, 5 μL of dephosphorylated casein are added to a final concentration of 0.2 μg/μL, 20 μl of CK1 epsilon to a final concentration of 3 ng/μl, and 20 μl of ATP-^33P to a final concentration of 0.02 μCi/μl mixed with cold ATP (10 μM final—approximately 2×10^6 CPM per well). The final total test volume per well is equal to 50 μl.
The “U”-bottomed Falcon® test plate mentioned above is vortexed, and then incubated at ambient temperature for 2 hours. After 2 hours, the reaction is stopped by adding an ice-cold solution of 65 μl of ATP (2 mM) prepared in test buffer.
100 μl of the reaction mixture are then transferred from the “U”-bottomed Falcon® plate into Millipore® MAPH filter plates, preimpregnated with 25 μl of ice-cold 100% TCA. […]
The plates are left to dry overnight at ambient temperature. […] The radiation emitted by each well is then measured for 2 minutes in a Packard® Topcount NXT scintillation counter, in which the values of CPM/well are measured.
The percentage inhibition of the capacity of the enzyme to phosphorylate the substrate (casein) is determined for each concentration of compound tested. These inhibition data expressed as percentages are used to calculate the IC50 value for each compound compared with the controls.
The kinetic studies determined the KM value for ATP as being 21 μM in this test system.

T1 sequence (P49674 whole entry): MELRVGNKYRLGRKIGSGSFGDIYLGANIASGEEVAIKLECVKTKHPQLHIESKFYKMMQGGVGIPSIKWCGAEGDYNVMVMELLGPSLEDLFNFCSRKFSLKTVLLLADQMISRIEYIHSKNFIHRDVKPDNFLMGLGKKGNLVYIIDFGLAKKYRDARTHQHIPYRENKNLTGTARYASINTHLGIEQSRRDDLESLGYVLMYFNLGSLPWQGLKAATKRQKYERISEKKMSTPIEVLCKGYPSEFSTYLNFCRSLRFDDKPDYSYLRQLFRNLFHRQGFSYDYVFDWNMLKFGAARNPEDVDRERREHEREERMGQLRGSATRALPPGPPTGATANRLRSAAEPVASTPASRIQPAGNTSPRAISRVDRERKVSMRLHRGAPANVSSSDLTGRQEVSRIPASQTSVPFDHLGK

CN1CCN(c2ccc3nc(-c4ccc(F)cc4)c(-c4ccnnc4)n3n2)CC1 [compound 5, 2-(4-fluorophenyl)-6-(4-methylpiperazin-1-yl)-3-pyridazin-4-yl-imidazo[1,2-b]pyridazine]
IC50: 16 to 33 nM
